Source: ChEMBL document CHEMBL1144449, “Design, synthesis, and evaluation of orally active 4-(2,4-difluoro-5-(methoxycarbamoyl)phenylamino)pyrrolo[2,1-f][1,2,4]triazines as dual vascular endothelial growth factor receptor-2 and fibroblast growth factor receptor-1 inhibitors” (J Med Chem, 2005)
Each block holds one compound with its values, some of them ahead of it.

Columns and labels:
[1] = molecular target: Vascular endothelial growth factor receptor 2 (Homo sapiens, UniProt P35968); assay: Inhibition of human vascular endothelial growth factor receptor 2 kinase activity
[2] = molecular target: Fibroblast growth factor receptor 1 (Homo sapiens, UniProt P11362); assay: Inhibition of human fibroblast growth factor receptor 1
[3] = molecular target: Fibroblast growth factor receptor (Homo sapiens, UniProt P22607+P11362+P22455+P21802); assay: Inhibition of FGF-stimulated human umbilical vein endothelial cell proliferation; type: functional, cell-based
[4] = molecular target: Vascular endothelial growth factor receptor (Homo sapiens, UniProt P17948+P35916+P35968); assay: Inhibition of VEGF-stimulated human umbilical vein endothelial cell proliferation; type: functional, cell-based
[5] = molecular target: Cyclin-dependent kinase 2 (Homo sapiens, UniProt P24941); assay: Inhibition of human cyclin-dependent kinase 2
[6] = molecular target: Receptor tyrosine-protein kinase erbB-2 (Homo sapiens, UniProt P04626); assay: Inhibition against human HER2 kinase
[7] = molecular target: Tyrosine-protein kinase Lck (Homo sapiens, UniProt P06239); assay: Inhibition of human p56 lck tyrosine kinase
[8] = Oral bioavailability determined after administration of 10 mg/kg dose po in mouse; type: ADME, organism-based; conditions: in vivo
[9] = Steady-state volume of distribution determined after administration of 5 mg/kg dose iv in mouse; type: ADME, organism-based; parameters: dose 5 mg/kg, route intravenous; conditions: in vivo, read-out: Vss
[10] = Area under curve determined after administration of 10 mg/kg dose po in mouse; type: ADME, organism-based; parameters: dose 10 mg/kg, route oral; conditions: in vivo
[11] = Area under curve determined after administration of 5 mg/kg dose iv in mouse; type: ADME, organism-based; parameters: dose 5 mg/kg, route intravenous; conditions: in vivo
[12] = Total time required to reach maximum plasma concentration after administration of 10 mg/kg dose po in mouse; type: ADME, organism-based; parameters: dose 10 mg/kg, route oral
Mus musculus [13] = assay: Tumor growth inhibition of L2987 human lung carcinoma xenografts implanted subcutaneously in athymic mouse after oral administration of 150 mg/kg/day; type: functional; conditions: read-out: TGI
[14] = Half-life determined after administration of 5 mg/kg dose iv in mouse; type: ADME, organism-based; parameters: dose 5 mg/kg, route intravenous; conditions: in vivo
[15] = Plasma level after 4 hours of oral administration of 10 mg/kg compound in mouse
[16] = Maximum plasma concentration determined after administration of 5 mg/kg dose iv in mouse; type: ADME, organism-based; parameters: dose 5 mg/kg, route intravenous
[17] = Maximum plasma concentration determined after administration of 10 mg/kg dose po in mouse; type: ADME, organism-based; parameters: dose 10 mg/kg, route oral
Mus musculus [18] = assay: Tumor growth inhibition of L2987 human lung carcinoma xenografts implanted subcutaneously in athymic mouse after oral administration of 100 mg/kg/day; type: functional; conditions: read-out: TGI
[19] = Plasma level after 1 hour of oral administration of 10 mg/kg compound in mouse
[20] = Systemic plasma clearance determined after administration of 5 mg/kg dose iv in mouse; type: ADME, organism-based; parameters: dose 5 mg/kg, route intravenous
Mus musculus [21] = assay: Tumor growth inhibition of L2987 human lung carcinoma xenografts implanted subcutaneously in athymic mouse after oral administration of 50 mg/kg/day; type: functional; conditions: read-out: TGI
[22] = Half-life determined after administration of 10 mg/kg dose po in mouse; type: ADME, organism-based; parameters: dose 10 mg/kg, route oral; conditions: in vivo
[23] = molecular target: Protein kinase C alpha type (Homo sapiens, UniProt P17252); assay: Inhibition of human protein kinase C alpha
[24] = Mean residence time determined after administration of 10 mg/kg dose po in mouse; type: ADME, organism-based; parameters: dose 10 mg/kg, route oral; conditions: in vivo
[25] = Mean residence time determined after administration of 5 mg/kg dose iv in mouse; type: ADME, organism-based; parameters: dose 5 mg/kg, route intravenous; conditions: in vivo
[26] = molecular target: Platelet-derived growth factor receptor beta (Homo sapiens, UniProt P09619); assay: Inhibition of human platelet-derived growth factor receptor beta
[27] = molecular target: Insulin-like growth factor 1 receptor (Homo sapiens, UniProt P08069); assay: Inhibition of human insulin-like growth factor I receptor
[28] = Plasma level after 1 hour of oral administration of 50 mg/kg compound in mouse; type: ADME, organism-based; parameters: dose 50 mg/kg, route oral; conditions: read-out: Plasma level
[29] = Plasma level after 4 hours of oral administration of 50 mg/kg compound in mouse; type: ADME, organism-based; parameters: dose 50 mg/kg, route oral; conditions: read-out: Plasma level

Sequence of Fibroblast growth factor receptor 1 (P11362 whole entry): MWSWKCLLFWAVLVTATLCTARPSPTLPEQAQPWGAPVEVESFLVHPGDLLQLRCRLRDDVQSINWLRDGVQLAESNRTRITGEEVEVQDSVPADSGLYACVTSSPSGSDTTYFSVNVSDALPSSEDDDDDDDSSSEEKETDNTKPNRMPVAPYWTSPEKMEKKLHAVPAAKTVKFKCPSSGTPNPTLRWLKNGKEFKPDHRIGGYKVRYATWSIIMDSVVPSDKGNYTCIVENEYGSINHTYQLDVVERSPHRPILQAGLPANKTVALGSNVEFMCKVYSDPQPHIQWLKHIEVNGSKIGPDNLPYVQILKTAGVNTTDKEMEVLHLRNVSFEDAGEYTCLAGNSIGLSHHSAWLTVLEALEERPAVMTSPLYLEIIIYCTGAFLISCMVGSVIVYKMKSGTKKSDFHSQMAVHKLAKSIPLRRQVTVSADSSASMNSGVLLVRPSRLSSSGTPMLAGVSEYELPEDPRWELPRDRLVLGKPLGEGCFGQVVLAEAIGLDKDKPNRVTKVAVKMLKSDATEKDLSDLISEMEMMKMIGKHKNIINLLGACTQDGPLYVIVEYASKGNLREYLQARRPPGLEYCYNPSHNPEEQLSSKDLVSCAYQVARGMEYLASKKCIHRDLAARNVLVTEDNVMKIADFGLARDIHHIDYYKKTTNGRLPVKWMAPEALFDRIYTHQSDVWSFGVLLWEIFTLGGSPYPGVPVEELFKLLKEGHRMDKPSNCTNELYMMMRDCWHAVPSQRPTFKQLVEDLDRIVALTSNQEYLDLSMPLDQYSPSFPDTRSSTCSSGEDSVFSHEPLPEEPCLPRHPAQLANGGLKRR
Sequence of Vascular endothelial growth factor receptor 2 (P35968 whole entry): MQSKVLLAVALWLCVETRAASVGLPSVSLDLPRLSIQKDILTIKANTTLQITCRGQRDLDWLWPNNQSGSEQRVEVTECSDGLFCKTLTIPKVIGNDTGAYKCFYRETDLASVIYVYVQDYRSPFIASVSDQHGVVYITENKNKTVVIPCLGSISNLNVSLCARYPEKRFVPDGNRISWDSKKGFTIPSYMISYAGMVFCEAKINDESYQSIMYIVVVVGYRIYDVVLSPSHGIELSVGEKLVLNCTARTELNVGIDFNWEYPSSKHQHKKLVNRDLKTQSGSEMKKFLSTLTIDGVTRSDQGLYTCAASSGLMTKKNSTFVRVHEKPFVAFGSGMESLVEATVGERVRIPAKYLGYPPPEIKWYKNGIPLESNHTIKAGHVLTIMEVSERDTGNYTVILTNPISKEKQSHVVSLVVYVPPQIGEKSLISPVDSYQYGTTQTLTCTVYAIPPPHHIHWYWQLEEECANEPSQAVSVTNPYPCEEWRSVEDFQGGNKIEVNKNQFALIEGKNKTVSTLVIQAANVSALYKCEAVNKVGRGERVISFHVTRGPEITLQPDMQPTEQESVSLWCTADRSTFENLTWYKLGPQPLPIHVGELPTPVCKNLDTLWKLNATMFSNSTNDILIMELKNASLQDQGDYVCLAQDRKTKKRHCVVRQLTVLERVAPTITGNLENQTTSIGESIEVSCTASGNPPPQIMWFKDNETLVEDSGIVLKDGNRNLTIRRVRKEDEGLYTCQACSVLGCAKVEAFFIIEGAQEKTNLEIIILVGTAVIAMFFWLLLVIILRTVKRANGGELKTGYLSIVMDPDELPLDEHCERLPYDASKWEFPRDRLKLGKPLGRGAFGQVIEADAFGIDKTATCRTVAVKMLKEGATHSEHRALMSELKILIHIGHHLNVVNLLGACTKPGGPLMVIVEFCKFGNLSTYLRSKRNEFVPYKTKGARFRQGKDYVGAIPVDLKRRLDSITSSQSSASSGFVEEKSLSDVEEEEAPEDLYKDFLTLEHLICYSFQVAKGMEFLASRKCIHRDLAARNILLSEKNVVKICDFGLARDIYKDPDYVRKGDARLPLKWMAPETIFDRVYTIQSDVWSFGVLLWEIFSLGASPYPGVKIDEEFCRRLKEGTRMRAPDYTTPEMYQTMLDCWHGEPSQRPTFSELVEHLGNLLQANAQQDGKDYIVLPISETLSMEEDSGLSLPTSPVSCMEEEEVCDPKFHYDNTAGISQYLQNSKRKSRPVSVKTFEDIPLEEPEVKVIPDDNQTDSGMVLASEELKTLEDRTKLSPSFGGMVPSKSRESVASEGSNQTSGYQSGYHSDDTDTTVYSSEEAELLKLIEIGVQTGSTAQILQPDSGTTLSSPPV
Sequence of Receptor tyrosine-protein kinase erbB-2 (P04626 whole entry): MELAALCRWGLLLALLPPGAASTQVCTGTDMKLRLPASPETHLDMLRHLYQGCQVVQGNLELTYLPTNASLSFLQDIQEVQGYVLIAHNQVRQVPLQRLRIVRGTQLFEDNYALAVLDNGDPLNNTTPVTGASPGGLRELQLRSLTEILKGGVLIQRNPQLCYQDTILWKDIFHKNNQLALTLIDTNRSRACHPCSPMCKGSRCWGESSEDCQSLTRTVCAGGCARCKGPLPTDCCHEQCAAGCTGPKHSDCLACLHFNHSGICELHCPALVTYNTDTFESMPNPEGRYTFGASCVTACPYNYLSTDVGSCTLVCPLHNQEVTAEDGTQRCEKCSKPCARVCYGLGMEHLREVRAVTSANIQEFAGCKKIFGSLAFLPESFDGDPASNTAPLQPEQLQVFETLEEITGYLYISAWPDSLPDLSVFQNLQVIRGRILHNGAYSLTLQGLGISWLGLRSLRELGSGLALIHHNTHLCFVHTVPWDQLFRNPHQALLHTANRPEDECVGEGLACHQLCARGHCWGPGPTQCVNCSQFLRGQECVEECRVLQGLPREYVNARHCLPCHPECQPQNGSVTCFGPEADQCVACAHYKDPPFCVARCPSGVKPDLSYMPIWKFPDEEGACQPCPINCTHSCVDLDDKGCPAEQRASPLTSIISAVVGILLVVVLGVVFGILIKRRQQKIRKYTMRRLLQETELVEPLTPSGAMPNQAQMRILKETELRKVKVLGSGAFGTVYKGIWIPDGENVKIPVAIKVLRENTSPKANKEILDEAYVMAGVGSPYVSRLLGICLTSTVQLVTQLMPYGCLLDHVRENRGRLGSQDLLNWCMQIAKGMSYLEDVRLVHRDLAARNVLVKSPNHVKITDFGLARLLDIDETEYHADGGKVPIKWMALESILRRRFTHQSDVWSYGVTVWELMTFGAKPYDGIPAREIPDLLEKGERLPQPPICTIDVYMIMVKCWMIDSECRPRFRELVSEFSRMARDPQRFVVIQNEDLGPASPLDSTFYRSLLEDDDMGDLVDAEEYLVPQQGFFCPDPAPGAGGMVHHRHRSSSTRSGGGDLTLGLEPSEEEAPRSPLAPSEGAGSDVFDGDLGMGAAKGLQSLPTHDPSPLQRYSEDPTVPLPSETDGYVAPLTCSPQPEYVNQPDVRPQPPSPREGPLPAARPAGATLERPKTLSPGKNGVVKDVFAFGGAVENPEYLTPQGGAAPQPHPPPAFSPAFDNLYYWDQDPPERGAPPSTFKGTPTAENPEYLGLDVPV
Sequence of Tyrosine-protein kinase Lck (P06239 whole entry): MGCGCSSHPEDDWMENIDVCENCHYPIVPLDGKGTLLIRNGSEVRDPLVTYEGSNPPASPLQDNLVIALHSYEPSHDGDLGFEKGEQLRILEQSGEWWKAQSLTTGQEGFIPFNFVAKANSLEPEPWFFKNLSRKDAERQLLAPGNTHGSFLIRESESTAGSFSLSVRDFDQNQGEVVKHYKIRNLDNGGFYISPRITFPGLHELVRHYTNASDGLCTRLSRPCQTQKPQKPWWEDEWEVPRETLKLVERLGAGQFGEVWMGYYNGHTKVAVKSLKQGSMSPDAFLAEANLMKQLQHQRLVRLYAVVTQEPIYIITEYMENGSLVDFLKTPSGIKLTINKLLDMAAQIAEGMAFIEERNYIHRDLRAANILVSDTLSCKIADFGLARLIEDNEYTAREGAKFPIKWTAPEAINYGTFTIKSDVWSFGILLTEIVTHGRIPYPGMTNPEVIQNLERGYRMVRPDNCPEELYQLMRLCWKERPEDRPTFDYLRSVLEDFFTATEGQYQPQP

SMILES: CCOC(=O)c1cn2ncnc(Nc3cc(C(=O)NOC(C)C)c(F)cc3F)c2c1C(C)C
- IC50 [1]: 350 nM

SMILES: CONC(=O)c1cc(Nc2ncnn3cc(-c4nnc(C(F)(F)S(C)(=O)=O)o4)c(C(C)C)c23)c(F)cc1F
- IC50 [5]: > 50000 nM
- IC50 [6]: > 25000 nM
- IC50 [7]: 7800 nM
- bioavailability [8]: 79%
- Vd [9]: 0.45 L/kg
- AUC [10]: 155 µM·h
- AUC [11]: 97.4 µM·h
- Tmax [12]: 0.5 h
- inhibition in vivo at 150 mg/kg/day (Mus musculus [13]): 94.2%
- IC50 [2]: 220 nM
- half-life [14]: 2.5 h
- IC50 [3]: 130 nM
- concentration at 4 h [15]: 13.8 µM
- Cmax [16]: 23.7 µM
- Cmax [17]: 27.7 µM
- inhibition in vivo at 100 mg/kg/day (Mus musculus [18]): 87.5%
- concentration at 1 h [19]: 26.6 µM
- clearance [20]: 1.53 mL/min/kg
- inhibition in vivo at 50 mg/kg/day (Mus musculus [21]): 63.9%
- half-life [22]: 3.6 h
- IC50 [23]: > 50000 nM
- MRT [24]: 5.2 h
- MRT [25]: 4.9 h

SMILES: CCOC(=O)c1cn2ncnc(Oc3cccc(C(=O)NOC)c3)c2c1C(C)C
- IC50 [1]: 270 nM

SMILES: CCOC(=O)c1cn2ncnc(Nc3cccc(C(=O)NOC)c3)c2c1C(C)C
- IC50 [1]: 130 nM

SMILES: CONC(=O)c1cc(Nc2ncnn3cc(-c4nnc(C)o4)c(C(C)C)c23)c(F)cc1F
- IC50 [26]: > 2000 nM
- IC50 [5]: > 50000 nM
- IC50 [6]: 8000 nM
- IC50 [2]: 19 nM
- IC50 [3]: 6.5 nM
- IC50 [27]: > 25000 nM
- concentration at 1 h [28]: 132 µM
- IC50 [23]: > 50000 nM
- concentration at 4 h [29]: 37.7 µM

SMILES: CONC(=O)c1cc(Nc2ncnn3cc(NC(=O)OCC4CCCO4)c(C(C)C)c23)c(F)cc1F (stereo not given)
- IC50 [5]: > 50000 nM
- IC50 [6]: > 10000 nM
- IC50 [27]: > 25000 nM
- concentration at 1 h [28]: 29.5 µM
- IC50 [23]: > 50000 nM
- concentration at 4 h [29]: 2.9 µM

SMILES: CONC(=O)c1cc(Nc2ncnn3cc(-c4nc(C)no4)c(C(C)C)c23)c(F)cc1F
- IC50 [1]: 49 nM
- IC50 [2]: 110 nM
- IC50 [3]: 7.6 nM
- IC50 [4]: 6.8 nM

SMILES: CONC(=O)c1cc(Nc2ncnn3cc(-c4nnc(C(C)C)o4)c(C(C)C)c23)c(F)cc1F
- IC50 [1]: 22 nM
- IC50 [2]: 39 nM
- IC50 [3]: 1 nM
- IC50 [4]: 18 nM

SMILES: CONC(=O)c1cc(Nc2ncnn3cc(NC(=O)OCc4ccccc4)c(C(C)C)c23)c(F)cc1F
- IC50 [1]: 180 nM

The next lines start with the values.

- IC50 [1]: 11 nM
- IC50 [2]: 18 nM
- IC50 [3]: 7.3 nM
- IC50 [4]: 6.7 nM
SMILES: CONC(=O)c1cc(Nc2ncnn3cc(-c4nnc(N(C)C)o4)c(C(C)C)c23)c(F)cc1F

- IC50 [1]: 40 nM
SMILES: CCONC(=O)c1cc(Nc2ncnn3cc(C(=O)OCC)c(C(C)C)c23)c(F)cc1F

- IC50 [1]: 34 nM
SMILES: CCOC(=O)c1cn2ncnc(Nc3cc(C(=O)NOC)ccc3F)c2c1C(C)C

- IC50 [1]: 79 nM
SMILES: CCOC(=O)c1cn2ncnc(Nc3ccc(F)c(C(=O)NOC)c3)c2c1C(C)C

- IC50 [1]: 120 nM
SMILES: CCOC(=O)c1cn2ncnc(Nc3ccc(C)c(C(=O)NOC)c3)c2c1C(C)C

- IC50 [1]: 66 nM
- IC50 [4]: 31 nM
SMILES: CCOC(=O)Nc1cn2ncnc(Nc3cc(C(=O)NOC)c(F)cc3F)c2c1C(C)C

- IC50 [1]: 76 nM
- IC50 [2]: 84 nM
- IC50 [3]: 33 nM
- IC50 [4]: 35 nM
SMILES: CONC(=O)c1cc(Nc2ncnn3cc(-c4nnc(C(F)(F)F)o4)c(C(C)C)c23)c(F)cc1F

- IC50 [1]: 17 nM
- IC50 [2]: 28 nM
- IC50 [3]: 4.7 nM
- IC50 [4]: 1.8 nM
SMILES: CCc1nnc(-c2cn3ncnc(Nc4cc(C(=O)NOC)c(F)cc4F)c3c2C(C)C)o1

- IC50 [1]: 66 nM
- IC50 [2]: 149 nM
SMILES: CONC(=O)c1cc(Nc2ncnn3cc(-c4nnc(CN(C)C)o4)c(C(C)C)c23)c(F)cc1F
